Values joined by “and” are separate entries in the source; they are usually repeats but may differ in a detail not shown here. Identical values can stand only once.
Legend:
rat CaV3.1 channel [1] = molecular target: T1, rat CaV3.1 channel (Rattus norvegicus, UniProt O54898); test: Two-electrode voltage clamp on Xenopus oocytes expressing CaV3.1; format: cell-based; conditions: for inhibition at 10 µM / Shift in the voltage dependency (activation/inactivation) of CaV3.1: 10 μM compound; for inhibition at 10 µM: 10 mM Ba2+, means ± SEM (n ≥ 3), read-out: Inhibition of CaV3.1 currents; for IC50: concentration-response 0.1-100 μM, means ± SEM; for Hill coefficient on CaV3.1: concentration-response fit; for Reversibility of effect on CaV3.1 on wash-out: wash-in and wash-out
T1 sequence (O54898 whole entry): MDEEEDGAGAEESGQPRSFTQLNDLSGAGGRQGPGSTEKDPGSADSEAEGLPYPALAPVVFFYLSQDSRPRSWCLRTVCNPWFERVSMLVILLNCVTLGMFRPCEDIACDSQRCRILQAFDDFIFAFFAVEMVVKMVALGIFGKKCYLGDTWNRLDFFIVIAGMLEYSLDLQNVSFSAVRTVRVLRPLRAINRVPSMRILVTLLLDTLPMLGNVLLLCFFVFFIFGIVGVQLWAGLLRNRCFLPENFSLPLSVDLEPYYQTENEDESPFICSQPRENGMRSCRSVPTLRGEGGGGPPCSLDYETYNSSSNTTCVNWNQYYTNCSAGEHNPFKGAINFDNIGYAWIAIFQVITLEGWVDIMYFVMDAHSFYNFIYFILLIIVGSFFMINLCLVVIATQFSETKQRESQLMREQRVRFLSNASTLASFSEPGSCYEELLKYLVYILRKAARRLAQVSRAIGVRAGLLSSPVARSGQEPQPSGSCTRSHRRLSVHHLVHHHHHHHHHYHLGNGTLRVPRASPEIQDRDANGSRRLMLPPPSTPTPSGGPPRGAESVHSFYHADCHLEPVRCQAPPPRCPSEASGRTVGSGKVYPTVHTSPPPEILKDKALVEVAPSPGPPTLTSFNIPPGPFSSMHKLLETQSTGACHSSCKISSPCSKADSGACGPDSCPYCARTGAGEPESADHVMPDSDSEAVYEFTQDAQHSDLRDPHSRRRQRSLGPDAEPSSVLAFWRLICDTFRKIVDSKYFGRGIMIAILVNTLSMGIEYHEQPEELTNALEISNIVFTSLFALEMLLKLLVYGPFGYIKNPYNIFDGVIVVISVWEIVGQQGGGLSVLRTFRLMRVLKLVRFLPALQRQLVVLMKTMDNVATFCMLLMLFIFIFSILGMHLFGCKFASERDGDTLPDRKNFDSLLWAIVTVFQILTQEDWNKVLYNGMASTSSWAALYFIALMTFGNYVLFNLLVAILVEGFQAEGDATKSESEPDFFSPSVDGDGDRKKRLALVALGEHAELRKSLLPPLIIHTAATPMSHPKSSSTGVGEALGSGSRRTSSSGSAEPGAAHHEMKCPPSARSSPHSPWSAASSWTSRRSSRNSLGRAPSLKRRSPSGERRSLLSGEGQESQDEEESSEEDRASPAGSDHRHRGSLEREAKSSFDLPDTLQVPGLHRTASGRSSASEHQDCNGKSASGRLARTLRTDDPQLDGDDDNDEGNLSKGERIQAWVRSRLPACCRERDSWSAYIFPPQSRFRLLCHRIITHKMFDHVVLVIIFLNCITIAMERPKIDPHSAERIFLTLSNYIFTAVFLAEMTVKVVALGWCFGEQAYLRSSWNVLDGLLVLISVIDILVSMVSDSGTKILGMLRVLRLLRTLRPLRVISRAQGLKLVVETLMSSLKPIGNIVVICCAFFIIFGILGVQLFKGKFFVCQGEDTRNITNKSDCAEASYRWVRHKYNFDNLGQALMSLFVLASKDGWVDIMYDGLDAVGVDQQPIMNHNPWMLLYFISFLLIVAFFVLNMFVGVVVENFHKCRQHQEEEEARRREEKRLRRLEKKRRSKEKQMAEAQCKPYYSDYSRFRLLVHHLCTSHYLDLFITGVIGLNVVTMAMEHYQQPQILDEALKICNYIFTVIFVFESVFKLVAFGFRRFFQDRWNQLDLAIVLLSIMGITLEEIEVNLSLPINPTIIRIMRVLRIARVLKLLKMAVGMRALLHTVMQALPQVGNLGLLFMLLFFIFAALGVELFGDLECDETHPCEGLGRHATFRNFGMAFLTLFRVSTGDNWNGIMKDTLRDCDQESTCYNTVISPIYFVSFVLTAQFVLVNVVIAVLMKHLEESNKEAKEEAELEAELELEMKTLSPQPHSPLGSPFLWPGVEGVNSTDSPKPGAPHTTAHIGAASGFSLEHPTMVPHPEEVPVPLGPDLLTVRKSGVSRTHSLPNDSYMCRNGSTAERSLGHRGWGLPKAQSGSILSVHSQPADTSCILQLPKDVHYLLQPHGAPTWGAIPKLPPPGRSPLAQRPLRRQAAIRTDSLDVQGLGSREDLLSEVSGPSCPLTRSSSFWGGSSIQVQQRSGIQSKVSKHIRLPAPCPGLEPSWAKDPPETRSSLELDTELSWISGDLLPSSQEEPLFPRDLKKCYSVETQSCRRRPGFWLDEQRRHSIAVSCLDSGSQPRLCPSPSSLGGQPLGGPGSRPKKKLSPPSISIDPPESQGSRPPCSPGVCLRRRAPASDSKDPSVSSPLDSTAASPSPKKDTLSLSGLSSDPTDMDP
Experimental: In previous work, a library of 119 simplified analogs was synthesized with the aim of targeting KV10.1 [18, 23, 24, 25]. Due to the interesting activity of purpurealidin I (1), we decided to repurpose this existing library to investigate the structure–activity relationship with respect to the CaV3.1 channels. All compounds were first dissolved in DMSO and then diluted in a 10 mM Ba^2+ solution. Compounds were tested at a final concentration of 10 μM.
(§1) Rat CaV3.1, human CaV3.2, rat CaV3.3, human NaV1.5, rat KV1.4, rat KV4.2, and human KV11.1 were expressed in X. laevis oocytes by linearizing the plasmids and subsequent in vitro transcription using a commercial T7 mMESSAGE mMACHINE transcription kit (Ambion, Carlsbad, CA, USA). Defolliculated Xenopus oocytes were injected with 50 nL of cRNA at a concentration of 1 ng/nL by using a microinjector (Drummond Scientific Company, Broomall, PA, USA). The oocytes were incubated in a solution containing (in mM): NaCl, 96; KCl, 2; CaCl2, 1.8; MgCl2, 2; and HEPES, 5 (pH 7.5). This solution was supplemented with 50 mg/L gentamicin sulfate and […] theophylline.
(§2) Two-electrode voltage clamp recordings were performed at room temperature (18–22 °C) by using a GeneClamp 500 amplifier (Molecular Devices, San Jose, CA, USA) controlled by a pClamp data acquisition system (Axon Instruments, Union City, CA, USA). Whole-cell currents from oocytes were recorded 5–10 days after mRNA injection. The bath solution composition was the following (in mM): BaCl2, 10; NaOH, 90; KOH, 1; EDTA, 0.1; and HEPES, 5 (pH 7.5). Voltage and current electrodes were filled with 3 M KCl. Resistances of both electrodes were kept between 0.8 and 1.5 MΩ. The elicited CaV3.1, CaV3.2, and CaV3.3 currents were filtered at 2 kHz and sampled at 4 kHz using a four-pole low-pass Bessel filter. Leak subtraction was performed by using a -P/4 protocol. Oocytes were placed in a measuring chamber filled with 200 μL ND96. The compounds were added directly to the measuring chamber under continuous application of the described voltage protocol. The percentage channel modulation was calculated when steady-state conditions were reached.
(§3) For the electrophysiological analysis of peptides, a number of protocols were applied from a holding potential of −90 mV. Currents for CaV3.1 and CaV3.2, which were carried by Ba^2+, were evoked by 300 ms depolarizing pulses to −25 mV or Vmax (the voltage corresponding to maximal Ba^2+ current in control conditions). Currents for CaV3.3, which were carried by Ba^2+, were evoked by 1 s depolarizing pulses to −25 mV or Vmax. The current–voltage relationships were determined by 600 ms step depolarizations between −90 and +60 mV, using 10 mV increments. The values of IPBa were normalized to the maximal Ba^2+ current amplitude and plotted as a function of voltage. To investigate the effect of the peptide toxins on the activation and steady-state inactivation, a standard 2-step protocol was used. In this protocol, 600 ms conditioning 10 mV step prepulses, ranging from −90 to +60 mV, were followed by a 400 ms test pulse to −25 mV. Data were normalized to the maximal Ba^2+ current amplitude, plotted against prepulse potential, and fitted by using the Boltzmann function: ICa/Imax = {(1 − C)/(1 + exp[(V − Vh)/k)]} + C, where Imax is the maximal IBa, Vh is the voltage corresponding to half-maximal inactivation, V is the test voltage, k is the slope factor, and C is a constant representing a non-inactivating persistent fraction (close to 0 in control). The concentration–response relationship was determined by fitting the data with the Hill equation: y = 100/{1 + [IC50/(toxin)]^h}, where y is the amplitude of the toxin-induced effect, IC50 is the toxin concentration at half-maximal efficacy, toxin is the toxin concentration, and h is the Hill coefficient.

human CaV3.2 = human CaV3.2 (Homo sapiens, UniProt O95180); test: Two-electrode voltage clamp on Xenopus oocytes expressing CaV3.2; format: cell-based; conditions: for Shift in the voltage dependency (activation/inactivation) of CaV3.2: 10 μM compound; for Hill coefficient on CaV3.2: concentration-response fit; for IC50: concentration-response, means ± SEM; for Reversibility of effect on CaV3.2 on wash-out: wash-in and wash-out
Experimental: as §1, §2, §3

rat CaV3.3 = rat CaV3.3 (Rattus norvegicus, UniProt Q9Z0Y8); test: Two-electrode voltage clamp on Xenopus oocytes expressing CaV3.3; format: cell-based; conditions: for Shift in the voltage dependency (activation/inactivation) of CaV3.3: 10 μM compound; for Hill coefficient on CaV3.3: concentration-response fit; for IC50: concentration-response, means ± SEM; for Reversibility of effect on CaV3.3 on wash-out: wash-in and wash-out
Sequence of rat CaV3.3 (Q9Z0Y8 whole entry): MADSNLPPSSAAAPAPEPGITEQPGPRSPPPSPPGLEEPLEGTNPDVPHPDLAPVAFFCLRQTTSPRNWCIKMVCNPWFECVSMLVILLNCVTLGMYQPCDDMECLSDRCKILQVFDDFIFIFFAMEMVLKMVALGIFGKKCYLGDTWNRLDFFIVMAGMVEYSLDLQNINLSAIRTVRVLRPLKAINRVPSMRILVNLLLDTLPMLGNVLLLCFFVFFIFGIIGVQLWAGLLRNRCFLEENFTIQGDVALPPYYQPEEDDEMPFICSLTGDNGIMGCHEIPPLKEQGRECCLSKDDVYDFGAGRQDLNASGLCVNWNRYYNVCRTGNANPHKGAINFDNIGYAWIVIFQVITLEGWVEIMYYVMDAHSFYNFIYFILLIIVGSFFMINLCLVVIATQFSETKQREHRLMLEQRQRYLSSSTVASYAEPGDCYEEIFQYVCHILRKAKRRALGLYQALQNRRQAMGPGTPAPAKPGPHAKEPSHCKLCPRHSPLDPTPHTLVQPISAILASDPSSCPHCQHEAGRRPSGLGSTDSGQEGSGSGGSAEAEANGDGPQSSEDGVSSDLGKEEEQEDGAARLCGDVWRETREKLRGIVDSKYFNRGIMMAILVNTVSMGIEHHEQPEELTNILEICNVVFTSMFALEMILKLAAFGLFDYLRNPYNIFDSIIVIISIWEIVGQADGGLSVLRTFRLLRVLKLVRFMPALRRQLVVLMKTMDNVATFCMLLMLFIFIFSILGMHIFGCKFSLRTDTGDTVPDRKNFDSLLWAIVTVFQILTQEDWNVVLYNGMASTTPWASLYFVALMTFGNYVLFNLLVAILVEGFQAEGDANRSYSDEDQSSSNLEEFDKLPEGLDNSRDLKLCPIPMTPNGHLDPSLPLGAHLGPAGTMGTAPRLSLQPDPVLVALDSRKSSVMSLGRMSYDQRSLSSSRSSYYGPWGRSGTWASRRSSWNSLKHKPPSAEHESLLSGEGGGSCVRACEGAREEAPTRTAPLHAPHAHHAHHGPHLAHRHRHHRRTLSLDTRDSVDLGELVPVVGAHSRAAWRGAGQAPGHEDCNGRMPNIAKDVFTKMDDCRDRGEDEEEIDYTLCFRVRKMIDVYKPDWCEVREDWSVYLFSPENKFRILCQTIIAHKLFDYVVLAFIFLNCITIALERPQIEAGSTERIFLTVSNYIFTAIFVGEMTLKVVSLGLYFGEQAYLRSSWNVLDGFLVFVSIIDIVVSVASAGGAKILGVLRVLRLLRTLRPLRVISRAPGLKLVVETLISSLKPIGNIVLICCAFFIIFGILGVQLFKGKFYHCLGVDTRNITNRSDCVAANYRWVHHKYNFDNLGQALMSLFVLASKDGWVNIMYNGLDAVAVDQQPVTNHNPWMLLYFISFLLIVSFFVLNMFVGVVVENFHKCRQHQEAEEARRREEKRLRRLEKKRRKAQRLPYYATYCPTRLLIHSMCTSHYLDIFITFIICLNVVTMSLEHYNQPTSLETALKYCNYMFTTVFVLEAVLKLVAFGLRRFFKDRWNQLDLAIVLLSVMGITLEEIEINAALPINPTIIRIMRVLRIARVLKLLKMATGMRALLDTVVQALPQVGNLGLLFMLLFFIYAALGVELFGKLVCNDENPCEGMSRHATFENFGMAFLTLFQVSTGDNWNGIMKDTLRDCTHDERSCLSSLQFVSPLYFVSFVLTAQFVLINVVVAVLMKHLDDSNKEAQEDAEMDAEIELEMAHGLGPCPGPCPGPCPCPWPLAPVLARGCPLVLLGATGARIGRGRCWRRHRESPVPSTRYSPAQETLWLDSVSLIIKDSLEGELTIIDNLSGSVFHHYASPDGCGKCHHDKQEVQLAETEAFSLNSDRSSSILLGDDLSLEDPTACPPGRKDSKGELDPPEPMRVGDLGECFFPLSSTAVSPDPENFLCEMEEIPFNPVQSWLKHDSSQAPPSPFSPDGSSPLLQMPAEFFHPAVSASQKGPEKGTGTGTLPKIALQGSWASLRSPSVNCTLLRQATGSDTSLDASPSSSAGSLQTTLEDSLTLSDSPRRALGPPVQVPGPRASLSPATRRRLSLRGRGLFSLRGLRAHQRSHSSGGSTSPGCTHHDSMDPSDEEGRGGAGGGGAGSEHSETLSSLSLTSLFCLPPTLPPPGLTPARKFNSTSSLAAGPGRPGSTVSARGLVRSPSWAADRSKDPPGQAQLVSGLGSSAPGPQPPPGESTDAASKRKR
Experimental: as §1, §2, §3

KV11.1 (hERG) = KV11.1 (hERG) (Homo sapiens, UniProt Q12809); test: Selectivity screening, KV11.1 (hERG) in Xenopus oocytes; format: cell-based; conditions: human, Xenopus laevis oocytes expressing human KV11.1 (hERG), pH 7.5; 10 μM; means ± SEM (n ≥ 3); read-out: Percentage of inhibition of KV11.1
Experimental: (§4) As these purpurealidin analogs represent a new class of potent CaV3.1 inhibitors, they could potentially be used as pharmacological tools to investigate the role of CaV3 channels in various disease models. Therefore, compounds 74, 76, 79, and 99 were further evaluated at a concentration of 10 μM for their selectivity against cardiac voltage-gated potassium and sodium channels. […] Nevertheless, the affinity for the KV11.1 channel is an important issue for all four compounds (Table 2).
as §1
(§5) The selectivity screening was conducted with the following protocols: the elicited KV1.4, KV4.2, and KV11.1 currents were filtered at 0.5 kHz and sampled at 2 kHz; NaV1.5 currents were filtered at 2 kHz and sampled at 20 kHz using a four-pole low-pass Bessel filter. Leak subtraction was performed using a -P/4 protocol. The oocytes were measured in a bath solution composition of ND96 (in mM): NaCl, 96; KCl, 2; CaCl2, 1.8; MgCl2, 2; and HEPES, 5 (pH 7.5). For the electrophysiological analysis of the compounds, a number of protocols were applied from a holding potential of −90 mV. Currents for KV1.4 and KV4.2 were evoked by 0.5 s depolarizing pulses to 0 mV, followed by 0.5 s repolarizing pulses to −50 mV. Currents for KV11.1 were evoked by 2.5 s depolarizing prepulses to +40 mV, followed by hyperpolarizing pulses to −120 mV for 2.5 s. Currents for NaV1.5 were evoked by 100 ms depolarizing pulses to 0 mV.

human KV11.1 = human KV11.1 (Homo sapiens, UniProt Q12809); test: as above; format: cell-based; conditions: comparison of own CaV3.1 and KV11.1 data
Experimental: as §4, §1, §5

rat CaV3.1 channel [2] = molecular target: T1, rat CaV3.1 channel; test: Two-electrode voltage clamp on Xenopus oocytes expressing CaV3.1; format: cell-based
hERG channels = conditions: reference not given; cited from earlier work

inhibition at 10 µM (rat CaV3.1 channel [1]) | Shift in the voltage dependency (activation/inactivation) of CaV3.1 (rat CaV3.1 channel [1]) | IC50 (rat CaV3.1 channel [1]) | Hill coefficient on CaV3.1 (rat CaV3.1 channel [1]) | Reversibility of effect on CaV3.1 on wash-out (rat CaV3.1 channel [1]) | Shift in the voltage dependency (activation/inactivation) of CaV3.2 (human CaV3.2) | Hill coefficient on CaV3.2 (human CaV3.2) | IC50 (human CaV3.2) | Reversibility of effect on CaV3.2 on wash-out (human CaV3.2) | Shift in the voltage dependency (activation/inactivation) of CaV3.3 (rat CaV3.3) | Hill coefficient on CaV3.3 (rat CaV3.3) | IC50 (rat CaV3.3) | Reversibility of effect on CaV3.3 on wash-out (rat CaV3.3) | SMILES | inhibition at 10 µM (KV11.1 (hERG)) | further results
70.5 ± 0.6% |  |  |  |  |  |  |  |  |  |  |  |  | CNCCCOc1c(Br)cc(CCNC(=O)/C(Cc2cc(Br)c(OC)c(Br)c2)=N/O)cc1Br [Compound 1, purpurealidin I] |  | 
3.1 ± 1.1% |  |  |  |  |  |  |  |  |  |  |  |  | O=C(NCc1cccnc1)C1=NOC2(C=C(Cl)C(=O)C(Cl)=C2)C1 [Compound 72] |  | 
43.4 ± 2.4% | No significant shift | 2.6 ± 0.6 µM | 0.8 ± 0.1 | reversible | No significant shift | 0.8 ± 0.0 | 3 ± 0.2 µM | reversible | No significant shift | 0.5 ± 0.1 | 13.9 ± 5.1 µM | reversible | CN(C)CCCOc1ccc(Nc2ccc(C(F)(F)F)cc2[N+](=O)[O-])cc1 [Compound 74] | 45.8 ± 2.9% | 
43 ± 4.5% | No significant shift | 3.7 ± 0.6 µM | 0.9 ± 0.1 | reversible | No significant shift | 0.8 ± 0.1 | 8.4 ± 3.6 µM | reversible | No significant shift | 0.7 ± 0.1 | 18.2 ± 3.1 µM | reversible | CN(C)CC(O)COc1ccc(Nc2ccc(C(F)(F)F)cc2[N+](=O)[O-])cc1 (stereo not shown) [Compound 76] | 64.2 ± 3.2% | 
60.4 ± 5.7% | No significant shift | 5.9 ± 1.9 µM | 0.8 ± 0.1 | reversible | No significant shift | 1.0 ± 0.0 | 7 ± 0.1 µM | reversible | No significant shift | 0.7 ± 0.1 | 2.7 ± 0.3 µM | reversible | CN(C)CC(O)COc1ccc(Nc2ccc(C(F)(F)F)cc2)cc1 (stereo not shown) [Compound 79] | 67.6 ± 3.9% | 
90.7 ± 5.4% |  | ~3 µM and 4.1 µM | 1.6 ± 0.1 |  |  | 1.4 ± 0.3 | 2.3 ± 0.5 µM |  |  |  |  |  | CN(C)CC(O)COc1ccc(Oc2ccc(C(F)(F)F)cc2[N+](=O)[O-])cc1 (stereo not shown) [Compound 99] | 69.1 ± 1.9% | Potency across CaV3.1 and hERG channels (human KV11.1): equipotent; Shift in the voltage dependency (activation/inactivation) of CaV3.1 (rat CaV3.1 channel [2]; 5 μM compound): no significant shift; inhibition at 5 µM (rat CaV3.1 channel [2]; 5 μM compound, read-out: Inhibition of CaV3.1 currents): 57 ± 5.8%; Reversibility of effect on CaV3.1 on wash-out (rat CaV3.1 channel [2]; 5 μM compound, wash-out with compound-free bath solution): not completely reversible; Midpoint of activation V1/2 (rat CaV3.1 channel [2]; in the presence of 5 μM compound, control −39.9 ± 0.1 mV): −37.4 ± 0.1 mV; Inactivation curve V1/2 (rat CaV3.1 channel [2]; in the presence of 5 μM compound, control −56.0 ± 0.1 mV): −53.0 ± 0.2 mV
 |  |  |  |  |  |  |  |  |  |  |  |  | CC(C)(C)NC(=O)CN1CCC(CNC(=O)c2cc(F)cc(Cl)c2)CC1 [Compound Z944] |  | IC50 (hERG channels): 7.8 µM; Potency against CaV3.1 compared to hERG channels (hERG channels): 150 fold
